Laboratory results reported in US20250275540A1, “USE OF PROTOPORPHYRINOGEN OXIDASE” (BEIJING DABEINONG BIOTECHNOLOGY CO., LTD., priority 2022, published 2025).

Test system: transgenic Arabidopsis thaliana T1 plants
Test: Detection of the herbicide tolerance of the transgenic Arabidopsis thaliana plants
Type: in vivo
Conditions: for The grade of pesticide damage/plant: 0 / The grade of pesticide damage/plant: 1 / The grade of pesticide damage/plant: 2 / The grade of pesticide damage/plant: 3: 7 DAT
Text: The transformed Arabidopsis thaliana T1 plants were initially selected using glufosinate herbicide. The Arabidopsis thaliana T1 plants (PPOA-01) into which the PPOA-01 nucleotide sequence was introduced, the Arabidopsis thaliana T1 plants (PPOB-01) into which the PPOB-01 nucleotide sequence was introduced, the Arabidopsis thaliana T1 plants (PPOC-01) into which the PPOC-01 nucleotide sequence was introduced, the Arabidopsis thaliana T1 plants (PPOD-01) into which the PPOD-01 nucleotide sequence was introduced, the Arabidopsis thaliana T1 plants (PPOE-01) into which the PPOE-01 nucleotide sequence was introduced, the Arabidopsis thaliana T1 plants (PPOF-01) into which the PPOF-01 nucleotide sequence was introduced, the Arabidopsis thaliana T1 plants (PPO-AP-01) into which the PPO-AP-01 nucleotide sequence was introduced, and the Arabidopsis thaliana T1 plants (control vector) into which the control vector was introduced, the wild-type Arabidopsis thaliana plants (CK) (with 24 plants being included in each genotype) (18 days after sowing) were sprayed with saflufenacil at three concentrations (25 g ai/ha (one-fold field concentration, 1×), 100 g ai/ha (four-fold field concentration, 4×), and 0 g ai/ha (water, 0×)), oxyfluorfen at three concentrations (180 g ai/ha (one-fold field concentration, 1×), 720 g ai/ha (four-fold field concentration, 4×), and 0 g ai/ha (water, 0×)), and flumioxazin at three concentrations (60 g ai/ha (one-fold field concentration, 1×), 240 g ai/ha (four-fold field concentration, 4×), and 0 g ai/ha (water, 0×) to determine the tolerance of Arabidopsis thaliana to the herbicides. After 7 days of spraying (7 DAT), the damage level of each plant caused by the herbicide was evaluated according to the average of the damage levels (%) of plants (the average of the damage levels (%) of plants=the injured leaf area/the total leaf area×100%), i.e., the grade of pesticide damage: grade 0 means that the growth status of plants is essentially consistent with those sprayed with the blank solvent (water); grade 1 means that the average of the damage levels of plants is less than 10%; grade 2 means that the average of the damage levels of plants is greater than 10%; and grade 3 means that the average of the damage levels of plants is 100%. The plants having a growth status falling within grades 0 and 1 are classified as highly resistant plants; those having a growth status falling within grade 2 are classified as poorly resistant plants; and those having a growth status falling within grade 3 are classified as non-resistant plants.

[1] = genotype Control vector, 180 g ai/ha
[2] = genotype Control vector, 720 g ai/ha
[3] = genotype PPO-AP-01, 180 g ai/ha
[4] = genotype PPO-AP-01, 720 g ai/ha

CCOc1cc(Oc2ccc(C(F)(F)F)cc2Cl)ccc1[N+](=O)[O-] [oxyfluorfen, 2-chloro-1-(3-ethoxy-4-nitrophenoxy)-4-trifluoromethylbenzene]
effective dose distinguishing sensitive plants from plants having an average level of resistance (Arabidopsis thaliana): 180 g ai/ha | The grade of pesticide damage/plant: 0 (genotype CK, 180 g ai/ha): 0 plant | The grade of pesticide damage/plant: 1 (genotype CK, 180 g ai/ha): 0 plant | The grade of pesticide damage/plant: 2 (genotype CK, 180 g ai/ha): 0 plant | The grade of pesticide damage/plant: 3 (genotype CK, 180 g ai/ha): 24 plant | The grade of pesticide damage/plant: 0 (genotype CK, 720 g ai/ha): 0 plant | The grade of pesticide damage/plant: 1 (genotype CK, 720 g ai/ha): 0 plant | The grade of pesticide damage/plant: 2 (genotype CK, 720 g ai/ha): 0 plant | The grade of pesticide damage/plant: 3 (genotype CK, 720 g ai/ha): 24 plant | The grade of pesticide damage/plant: 0 [1]: 0 plant | The grade of pesticide damage/plant: 1 [1]: 0 plant | The grade of pesticide damage/plant: 2 [1]: 0 plant | The grade of pesticide damage/plant: 3 [1]: 24 plant | The grade of pesticide damage/plant: 0 [2]: 0 plant | The grade of pesticide damage/plant: 1 [2]: 0 plant | The grade of pesticide damage/plant: 2 [2]: 0 plant | The grade of pesticide damage/plant: 3 [2]: 24 plant | The grade of pesticide damage/plant: 0 [3]: 0 plant | The grade of pesticide damage/plant: 1 [3]: 0 plant | The grade of pesticide damage/plant: 2 [3]: 0 plant | The grade of pesticide damage/plant: 3 [3]: 24 plant | The grade of pesticide damage/plant: 0 [4]: 0 plant | The grade of pesticide damage/plant: 1 [4]: 0 plant | The grade of pesticide damage/plant: 2 [4]: 0 plant | The grade of pesticide damage/plant: 3 [4]: 24 plant | tolerance to the herbicide (in words) (genotype PPO-AP-01, at different concentrations): no tolerance | The grade of pesticide damage/plant: 0 (genotype PPOA-01, 180 g ai/ha): 24 plant | The grade of pesticide damage/plant: 1 (genotype PPOA-01, 180 g ai/ha): 0 plant | The grade of pesticide damage/plant: 2 (genotype PPOA-01, 180 g ai/ha): 0 plant | The grade of pesticide damage/plant: 3 (genotype PPOA-01, 180 g ai/ha): 0 plant | The grade of pesticide damage/plant: 0 (genotype PPOA-01, 720 g ai/ha): 24 plant | The grade of pesticide damage/plant: 1 (genotype PPOA-01, 720 g ai/ha): 0 plant | The grade of pesticide damage/plant: 2 (genotype PPOA-01, 720 g ai/ha): 0 plant | The grade of pesticide damage/plant: 3 (genotype PPOA-01, 720 g ai/ha): 0 plant | The grade of pesticide damage/plant: 0 (genotype PPOB-01, 180 g ai/ha): 24 plant | The grade of pesticide damage/plant: 1 (genotype PPOB-01, 180 g ai/ha): 0 plant | The grade of pesticide damage/plant: 2 (genotype PPOB-01, 180 g ai/ha): 0 plant | The grade of pesticide damage/plant: 3 (genotype PPOB-01, 180 g ai/ha): 0 plant | The grade of pesticide damage/plant: 0 (genotype PPOB-01, 720 g ai/ha): 24 plant | The grade of pesticide damage/plant: 1 (genotype PPOB-01, 720 g ai/ha): 0 plant | The grade of pesticide damage/plant: 2 (genotype PPOB-01, 720 g ai/ha): 0 plant | The grade of pesticide damage/plant: 3 (genotype PPOB-01, 720 g ai/ha): 0 plant | The grade of pesticide damage/plant: 0 (genotype PPOC-01, 180 g ai/ha): 24 plant | The grade of pesticide damage/plant: 1 (genotype PPOC-01, 180 g ai/ha): 0 plant | The grade of pesticide damage/plant: 2 (genotype PPOC-01, 180 g ai/ha): 0 plant | The grade of pesticide damage/plant: 3 (genotype PPOC-01, 180 g ai/ha): 0 plant | The grade of pesticide damage/plant: 0 (genotype PPOC-01, 720 g ai/ha): 24 plant | The grade of pesticide damage/plant: 1 (genotype PPOC-01, 720 g ai/ha): 0 plant | The grade of pesticide damage/plant: 2 (genotype PPOC-01, 720 g ai/ha): 0 plant | The grade of pesticide damage/plant: 3 (genotype PPOC-01, 720 g ai/ha): 0 plant | The grade of pesticide damage/plant: 0 (genotype PPOD-01, 180 g ai/ha): 24 plant | The grade of pesticide damage/plant: 1 (genotype PPOD-01, 180 g ai/ha): 0 plant | The grade of pesticide damage/plant: 2 (genotype PPOD-01, 180 g ai/ha): 0 plant | The grade of pesticide damage/plant: 3 (genotype PPOD-01, 180 g ai/ha): 0 plant | The grade of pesticide damage/plant: 0 (genotype PPOD-01, 720 g ai/ha): 24 plant | The grade of pesticide damage/plant: 1 (genotype PPOD-01, 720 g ai/ha): 0 plant | The grade of pesticide damage/plant: 2 (genotype PPOD-01, 720 g ai/ha): 0 plant | The grade of pesticide damage/plant: 3 (genotype PPOD-01, 720 g ai/ha): 0 plant | The grade of pesticide damage/plant: 0 (genotype PPOE-01, 180 g ai/ha): 22 plant | The grade of pesticide damage/plant: 1 (genotype PPOE-01, 180 g ai/ha): 2 plant | The grade of pesticide damage/plant: 2 (genotype PPOE-01, 180 g ai/ha): 0 plant | The grade of pesticide damage/plant: 3 (genotype PPOE-01, 180 g ai/ha): 0 plant | The grade of pesticide damage/plant: 0 (genotype PPOE-01, 720 g ai/ha): 15 plant | The grade of pesticide damage/plant: 1 (genotype PPOE-01, 720 g ai/ha): 9 plant | The grade of pesticide damage/plant: 2 (genotype PPOE-01, 720 g ai/ha): 0 plant | The grade of pesticide damage/plant: 3 (genotype PPOE-01, 720 g ai/ha): 0 plant | The grade of pesticide damage/plant: 0 (genotype PPOF-01, 180 g ai/ha): 24 plant | The grade of pesticide damage/plant: 1 (genotype PPOF-01, 180 g ai/ha): 0 plant | The grade of pesticide damage/plant: 2 (genotype PPOF-01, 180 g ai/ha): 0 plant | The grade of pesticide damage/plant: 3 (genotype PPOF-01, 180 g ai/ha): 0 plant | The grade of pesticide damage/plant: 0 (genotype PPOF-01, 720 g ai/ha): 24 plant | The grade of pesticide damage/plant: 1 (genotype PPOF-01, 720 g ai/ha): 0 plant | The grade of pesticide damage/plant: 2 (genotype PPOF-01, 720 g ai/ha): 0 plant | The grade of pesticide damage/plant: 3 (genotype PPOF-01, 720 g ai/ha): 0 plant | tolerance to the herbicide (in words) (genotypes PPOA-01 to PPOF-01, at different concentrations, compared with the control vector and CK): high-resistant tolerance
